Measured values from PMC7311426, “An amphipathic peptide with antibiotic activity against multidrug-resistant Gram-negative bacteria” (Nature Communications, 2020).
In brackets after ≈: the same amount, converted by molar mass. Read-outs that look alike come from different tables or passages of the source. Residues, ends and D or L forms follow the SMILES beside them.

Assays:
Experiment in all cases: microbe, parasite or virus in culture
[1] = test system: A. baumannii; details: A. baumannii Greece CI, XDR; PmxR; MHB; mode of 6 replicates
In short: (§1)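 Broth microdilution in MHB, 2-fold 12-point series from 128 or 64 down to 0.06 or 0.03 μg mL^−1, 5 × 10^5 CFU mL^−1. Extra runs in CAMHB per CLSI and in MHB with 1% agarose; n ≥ 6.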

[2] = test system: E. coli
In short: as §1

[3] = test system: K. pneumoniae; details: for MIC, broth microdilution: plate 1, colony 1; for MIC K. pneumoniae ATCC BAA-2146: NDM-1 strain, NBS Corning 3641 plate
In short: as §1

[4] = test system: P. aeruginosa
In short: as §1

## CC(C)[C@@H]1NC(=O)[C@H](Cc2ccc(O)cc2)NC(=O)[C@H](Cc2c[nH]c3ccccc23)NC(=O)[C@@H](NC(=O)[C@H](Cc2ccccc2)NC(=O)CN)CSSC[C@@H](C(=O)N[C@@H](CC(N)=O)C(=O)O)NC(=O)[C@H](CCCNC(=N)N)NC(=O)[C@H](CCCNC(=N)N)NC(=O)[C@H](Cc2ccc(O)cc2)NC(=O)[C@@H]2CSSC[C@H](NC1=O)C(=O)N[C@@H](C)C(=O)N[C@@H](CCCNC(=N)N)C(=O)N[C@@H](CCCNC(=N)N)C(=O)N[C@@H](CC(N)=O)C(=O)NCC(=O)N[C@@H](C)C(=O)N[C@@H](CCCNC(=N)N)C(=O)N[C@@H](C(C)C)C(=O)N2 [AA139] (HELM PEPTIDE1{G.F.C.W.Y.V.C.A.R.R.N.G.A.R.V.C.Y.R.R.C.N}$PEPTIDE1,PEPTIDE1,3:R3-20:R3|PEPTIDE1,PEPTIDE1,7:R3-16:R3$$$V2.0)
[1]
  BMD MIC: 0.5 µg/mL
[2]
  MIC against ESBL producing E. coli DSA 443: 0.5 µg/mL (≈ 0.196 µM)
  MIC, broth microdilution: 0.06 µg/mL (≈ 0.0235 µM)
[2]; E. coli AUD172 spontaneous mutant, AA139 selection 4X, plate 2, colony 2, drug-free passage 1
  MIC, broth microdilution: 0.12 µg/mL (≈ 0.0471 µM)
[2]; E. coli AUD172 spontaneous mutant, AA139 selection 4X, plate 2, colony 2, drug-free passage 5
  MIC, broth microdilution: 0.25 µg/mL (≈ 0.098 µM)
[2]; E. coli ESBL20150072, mcr-1 pos, ESBL, CAMHB, AA139
  BMD MIC: 0.5 µg/mL
[3]
  BMD MIC: 0.5 µg/mL
[3]; BMD, MHB, 18-20 h 37 °C, mode of ≥6 independent biological replicates
  MIC K. pneumoniae BAA-2146 (NDM-1): 1 µg/mL (≈ 0.392 µM)
[3]; K. pneumoniae 3010 spontaneous mutant, AA139 selection 4X, drug-free passage 1
  MIC, broth microdilution: 2, 2 µg/mL
[3]; K. pneumoniae 3010 spontaneous mutant, AA139 selection 4X, drug-free passage 5
  MIC, broth microdilution: 2, 2 µg/mL
[3]; K. pneumoniae 3010 spontaneous mutant, AA139 selection 8X, drug-free passage 1
  MIC, broth microdilution: 2, 2 µg/mL
[3]; K. pneumoniae 3010 spontaneous mutant, AA139 selection 8X, drug-free passage 5
  MIC, broth microdilution: 2, 2 µg/mL
[3]; K. pneumoniae ATCC 700603 (K6), MDR, OXA-2/SHV-18, CAMHB, mode of 6 replicates
  BMD MIC: 2 µg/mL
[3]; K. pneumoniae ATCC 700603 (K6), MDR, OXA-2/SHV-18, MHB, mode of 6 replicates
  BMD MIC: 0.5 µg/mL
[3]; K. pneumoniae BAA-2146, MDR, ESBL, NDM-1 pos, MHB, mode of 6 replicates
  BMD MIC: 1 µg/mL
[3]; K. pneumoniae Greece CI 8_GR_13, XDR, KPC-2, PmxR, MHB, mode of 6 replicates
  BMD MIC: 16 µg/mL
[3]; K. pneumoniae ST258 spontaneous mutant, AA139 selection 4X, drug-free passage 1
  MIC, broth microdilution: 2, 2 µg/mL
[3]; K. pneumoniae ST258 spontaneous mutant, AA139 selection 4X, drug-free passage 5
  MIC, broth microdilution: 2, 2 µg/mL
[3]; CAMHB, replicate 1
  MIC K. pneumoniae ATCC BAA-2146: 1 µg/mL (≈ 0.392 µM)
[3]; CAMHB, replicate 2
  MIC K. pneumoniae ATCC BAA-2146: 1 µg/mL (≈ 0.392 µM)
[3]; CAMHB, replicate 3
  MIC K. pneumoniae ATCC BAA-2146: 1 µg/mL (≈ 0.392 µM)
[3]; CAMHB, replicate 4
  MIC K. pneumoniae ATCC BAA-2146: 2 µg/mL (≈ 0.784 µM)
[3]; CAMHB, replicate 5
  MIC K. pneumoniae ATCC BAA-2146: 1 µg/mL (≈ 0.392 µM)
[3]; CAMHB, replicate 6
  MIC K. pneumoniae ATCC BAA-2146: 1 µg/mL (≈ 0.392 µM)
[3]; CAMHB, replicate 7
  MIC K. pneumoniae ATCC BAA-2146: 0.5 µg/mL (≈ 0.196 µM)
[3]; CAMHB, replicate 8
  MIC K. pneumoniae ATCC BAA-2146: 0.5 µg/mL (≈ 0.196 µM)
[3]; CAMHB, replicate 9
  MIC K. pneumoniae ATCC BAA-2146: 0.5 µg/mL (≈ 0.196 µM)
[3]; CAMHB, replicate 10
  MIC K. pneumoniae ATCC BAA-2146: 0.25 µg/mL (≈ 0.098 µM)
[3]; CAMHB, replicate 11
  MIC K. pneumoniae ATCC BAA-2146: 0.5 µg/mL (≈ 0.196 µM)
[3]; CAMHB, replicate 12
  MIC K. pneumoniae ATCC BAA-2146: 0.5 µg/mL (≈ 0.196 µM)
[3]; CAMHB, replicate 13
  MIC K. pneumoniae ATCC BAA-2146: 1 µg/mL (≈ 0.392 µM)
[3]; CAMHB, replicate 14
  MIC K. pneumoniae ATCC BAA-2146: 1 µg/mL (≈ 0.392 µM)
[4]
  MIC against P. aeruginosa (ATCC 27853): 1.0 µg/mL (≈ 0.392 µM)
  MIC, broth microdilution: 1 µg/mL (≈ 0.392 µM)
[4]; P. aeruginosa ATCC 27853 spontaneous mutant, AA139 selection 4X, plate 1, colony 1, drug-free passage 1
  MIC, broth microdilution: 1, 1 µg/mL
[4]; P. aeruginosa ATCC 27853 spontaneous mutant, AA139 selection 4X, plate 1, colony 1, drug-free passage 5
  MIC, broth microdilution: 1, 1 µg/mL
[4]; P. aeruginosa ATCC 27853 spontaneous mutant, AA139 selection 4X, plate 1, colony 2, drug-free passage 1
  MIC, broth microdilution: 1, 1 µg/mL
[4]; P. aeruginosa ATCC 27853 spontaneous mutant, AA139 selection 4X, plate 1, colony 2, drug-free passage 5
  MIC, broth microdilution: 1, 1 µg/mL
[4]; P. aeruginosa ATCC 27853 spontaneous mutant, AA139 selection 4X, plate 1, colony 3, drug-free passage 1
  MIC, broth microdilution: 1, 1 µg/mL
[4]; P. aeruginosa ATCC 27853 spontaneous mutant, AA139 selection 4X, plate 1, colony 3, drug-free passage 5
  MIC, broth microdilution: 1, 1 µg/mL
[4]; P. aeruginosa ATCC 27853 spontaneous mutant, AA139 selection 4X, plate 1, colony 4, drug-free passage 1
  MIC, broth microdilution: 2 µg/mL (≈ 0.784 µM)
[4]; P. aeruginosa ATCC 27853 spontaneous mutant, AA139 selection 4X, plate 1, colony 4, drug-free passage 5
  MIC, broth microdilution: 1 µg/mL (≈ 0.392 µM)
[4]; P. aeruginosa ATCC 27853 spontaneous mutant, AA139 selection 4X, plate 1, colony 5, drug-free passage 1
  MIC, broth microdilution: 2, 2 µg/mL
[4]; P. aeruginosa ATCC 27853 spontaneous mutant, AA139 selection 4X, plate 1, colony 5, drug-free passage 5
  MIC, broth microdilution: 2, 2 µg/mL
[4]; P. aeruginosa ATCC 27853 spontaneous mutant, AA139 selection 4X, plate 1, colony 6, drug-free passage 1
  MIC, broth microdilution: 1, 1 µg/mL
[4]; P. aeruginosa ATCC 27853 spontaneous mutant, AA139 selection 4X, plate 1, colony 6, drug-free passage 5
  MIC, broth microdilution: 1, 1 µg/mL
[4]; P. aeruginosa ATCC 27853 spontaneous mutant, AA139 selection 4X, plate 2, colony 1, drug-free passage 1
  MIC, broth microdilution: 1, 1 µg/mL
[4]; P. aeruginosa ATCC 27853 spontaneous mutant, AA139 selection 4X, plate 2, colony 1, drug-free passage 5
  MIC, broth microdilution: 1, 1 µg/mL
[4]; P. aeruginosa ATCC 27853 spontaneous mutant, AA139 selection 4X, plate 2, colony 2, drug-free passage 1
  MIC, broth microdilution: 1, 1 µg/mL
[4]; P. aeruginosa ATCC 27853 spontaneous mutant, AA139 selection 4X, plate 2, colony 2, drug-free passage 5
  MIC, broth microdilution: 1, 1 µg/mL
[4]; P. aeruginosa ATCC 27853 spontaneous mutant, AA139 selection 4X, plate 2, colony 3, drug-free passage 1
  MIC, broth microdilution: 1 µg/mL (≈ 0.392 µM)
[4]; P. aeruginosa ATCC 27853 spontaneous mutant, AA139 selection 4X, plate 2, colony 3, drug-free passage 5
  MIC, broth microdilution: 0.5 µg/mL (≈ 0.196 µM)
[4]; P. aeruginosa ATCC 27853 spontaneous mutant, AA139 selection 4X, plate 2, colony 4, drug-free passage 1
  MIC, broth microdilution: 1 µg/mL (≈ 0.392 µM)
[4]; P. aeruginosa ATCC 27853 spontaneous mutant, AA139 selection 4X, plate 2, colony 4, drug-free passage 5
  MIC, broth microdilution: 0.5 µg/mL (≈ 0.196 µM)
